Target: T1, ETA receptors (Homo sapiens, UniProt P25101)
T1 construct: host or cells: HEK293
T1 sequence (P25101 21-427): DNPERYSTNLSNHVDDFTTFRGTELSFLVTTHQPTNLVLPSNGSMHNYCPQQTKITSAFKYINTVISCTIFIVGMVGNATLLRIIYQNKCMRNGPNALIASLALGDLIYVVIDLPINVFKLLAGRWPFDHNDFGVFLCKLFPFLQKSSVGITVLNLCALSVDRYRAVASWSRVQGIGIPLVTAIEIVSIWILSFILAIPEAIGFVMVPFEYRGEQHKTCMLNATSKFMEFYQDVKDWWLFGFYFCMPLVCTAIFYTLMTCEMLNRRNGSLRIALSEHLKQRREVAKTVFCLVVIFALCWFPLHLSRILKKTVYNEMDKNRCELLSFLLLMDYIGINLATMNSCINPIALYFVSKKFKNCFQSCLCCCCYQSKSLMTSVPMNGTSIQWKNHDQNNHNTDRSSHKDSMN
Assay: effect on calcium current in cells stably expressing ETA receptors (HEK293-ETA, FLIPR, antagonist)
Type: cell-based
Conditions: 11 concentration points 10 µM to 0.17 nM
Source text: Test example 2. Determination of the effect of the compounds of the present invention on calcium current in cells stably expressing ETA receptors 1. Experimental objective: To test the antagonistic effect of compounds on HEK293-ETA cell activity 2. […] Experimental data processing method: FLIPR Tetra was used to read and collect the fluorescence signal value (RFU). The maximum RFU value was used to calculate the percent activation data based on the readings of the Low control (DMSO control) and High control (100 nM positive compound) experimental groups {% activation rate = (RFUsample - RFUlow control) / (RFUhigh control - RFUlow control)×100}. […]

| Compound | IC50 [nM] |
| --- | --- |
| [2H]C([2H])(c1ccc(-c2ccccc2S(=O)(=O)Nc2noc(C)c2Cl)c(COCC)c1)N1C(=O)C2(CCCC2)N=C1CCCC [Example 2, 4'-((2-Butyl-4-oxo-1,3-diazaspiro[4.4]non-1-en-3-yl)methyl-d2)-N-(4-chloro-5-methylisoxazol-3-yl)-2'-(ethoxymethyl)-[1,1'-biphenyl]-2-sulfonamide] | 15.1 |
| CCCCC1=NC2(CCCC2)C(=O)N1Cc1ccc(-c2ccccc2S(=O)(=O)Nc2noc(C)c2Cl)c(COCC)c1 [Example 8, 2-[4-[(2-Butyl-4-oxo-1,3-diazaspiro[4.4]non-1-en-3-yl)methyl]-2-(ethoxymethyl)phenyl]-N-(4-chloro-5-methyl-isoxazol-3-yl)benzenesulfonamide] | 14.9 |

Source: patent publication EP4671240A1, “SALT CONTAINING AROMATIC RING DERIVATIVE ANTAGONIST, PREPARATION METHOD THEREFOR, AND APPLICATION THEREOF” (Jiangsu Hansoh Pharmaceutical Group Co., Ltd., priority 2023, dated 2024)
